Laboratory results taken from PMC3806161, “Strychnos pseudoquina and Its Purified Compounds Present an Effective In Vitro Antileishmanial Activity” (Evidence-based Complementary and Alternative Medicine : eCAM, 2013).
Read-outs that look alike come from different tables or passages of the source.

Assays:
[1] = system: murine macrophages; assay: Cytotoxicity assay on macrophages (MTT); settings: for SI, Selectivity Index (ratio between CC50 and IC50): murine macrophages vs L. amazonensis promastigotes
Procedure: (§1) Cell viability was assessed by the MTT assay, and amphotericin B was used as a control. The selectivity index (SI) of the products was calculated by determining the ratio between IC50 and CC50. The hemolytic activity was investigated by incubating the products, in the same concentrations used for cytotoxicity evaluation, with a 5% red blood cell (human O^+) suspension for 1 h at 37°C. Briefly, the erythrocyte suspension was centrifuged (1000 ×g for 10 min), and cell lysis was determined spectrophotometrically (570 nm), as described [24]. The absence of (blank) or 100% presence of hemolysis (positive control) was determined by replacing the products for an equal volume of PBS or distilled water, respectively. The results were determined by the percentage of hemolysis when compared with the negative and positive controls. Data shown are representative of four independent experiments, performed in triplicate, which presented similar results.

[2] = system: stationary-phase promastigotes of L. amazonensis; assay: Antileishmanial activity: inhibition of promastigote viability (MTT); format: cell-based, Leishmania amazonensis
Procedure: Cell viability was assessed by measuring the cleavage of 2 mg/mL of MTT [3-(4.5-dimethylthiazol-2-yl)-2.5-diphenyl tetrazolium bromide] (Sigma). Absorbances were measured by using a multiwell scanning spectrophotometer (LABTRADE, model 660) at a wavelength of 570 nm. Amphotericin B (1 μM) was used as a positive control. The concentration of the products needed to inhibit 50% of the Leishmania viability (IC50) was determined by applying the sigmoidal regression of the concentration-response curves, using different concentrations of the compounds.

[3] = system: murine macrophages
Procedure: as §1

[4] = system: L. amazonensis in infected murine macrophages; assay: Treatment of infected macrophages; format: cell-based, Leishmania amazonensis; settings: for number of amastigotes per cell: untreated 8.4; for Percentage of infected macrophages after treatment: untreated 87.0
Procedure: Murine macrophages (5 × 10^5 cells) were plated on round glass coverslips inside the wells of a 24-well culture plate (Nunc) in an RPMI 1640 medium supplemented with 20% FBS, 2 mM L-glutamine, 200 U/mL penicillin, and 100 μg/mL streptomycin, at pH 7.4. After 24 h of incubation at 37°C in 5% CO2, stationary-phase promastigotes of L. amazonensis were added to the wells (5 × 10^6 cells), and the cultures were incubated for 24 h at 37°C in 5% CO2. A previous titration curve was performed to determine the minimum time incubation of parasites with the macrophages, in order to obtain the maximum of infection into the host cells (data not shown). Next, free parasites were removed by extensive washing with an RPMI 1640 medium, and infected macrophages were quantified and treated for 48 h with quercetin 3-O-methyl ether (0, 70, 140, or 280 μM) or strychnobiflavone (0, 40, 80 or 160 μM) for 48 h at […] in 5% CO2. Cells were washed in RPMI 1640 and incubated with 4% paraformaldehyde for 15 min, at which time they were treated with 70% ethanol in an ice bath for 4 h and again washed three times with sterile PBS. Amphotericin B was used as a control. The percentage of the inhibition of Leishmania intra-macrophage viability was determined by counting 200 cells in triplicate.

[5] = system: Leishmania amazonensis invasion of murine macrophages; assay: Inhibition of infection in phagocytic cells (pre-treated promastigotes); format: cell-based; settings: for reductions in infectivity of parasites after treatment: parasites preincubated 4 h at 24°C, versus about 87% infected macrophages with untreated parasites, concentration not given; for number of amastigotes per cell / Percentage of infected macrophages after treatment: 4 h at 24°C; for number of amastigotes per cell: untreated 8.4; for Percentage of infected macrophages after treatment: untreated 87.0
Procedure: The inhibitory effect of quercetin 3-O-methyl ether and strychnobiflavone on the Leishmania invasion of macrophages was evaluated using promastigotes of L. amazonensis. Parasites (1 × 10^6 cells) were preincubated with different concentrations of quercetin 3-O-methyl ether (0, 70, 140, or 280 μM) or strychnobiflavone (0, 40, 80, or 160 μM) for 4 h at 24°C. […] After incubation, parasites were washed three times with RPMI 1640 medium, quantified, and incubated for 24 h with murine macrophages, using a ratio of 10 parasites per 1 macrophage. After, cells were washed, set, and stained to determine the percentage of infected macrophages by counting 200 cells in triplicate.

[6] = system: O+ human red blood cells; assay: Hemolytic activity; format: cell-based
Procedure: as §1

[7] = Cytotoxicity assay on macrophages (MTT); settings: BALB/c, mouse, murine macrophages
Procedure: as §1

[8] = Leishmania amazonensis, 48 h, stationary-phase promastigotes, 48 h at 24°C, MTT, read-out: IC50 (inhibitory concentration of 50% of promastigotes of L. amazonensis)
[9] = infected macrophages treated with 70 μM for 48 h
[10] = infected macrophages treated with 140 μM for 48 h
[11] = infected macrophages treated with 280 μM for 48 h
[12] = promastigotes pre-treated with 70 μM
[13] = promastigotes pre-treated with 140 μM
[14] = promastigotes pre-treated with 280 μM
[15] = infected macrophages treated with 40 μM for 48 h
[16] = infected macrophages treated with 80 μM for 48 h
[17] = infected macrophages treated with 160 μM for 48 h
[18] = promastigotes pre-treated with 40 μM
[19] = promastigotes pre-treated with 80 μM
[20] = promastigotes pre-treated with 160 μM

In the case of `C[C@@H]1[C@H](O)[C@@H](C)/C=C/C=C/C=C/C=C/C=C/C=C/C=C/[C@H](O[C@@H]2O[C@H](C)[C@@H](O)[C@H](N)[C@@H]2O)C[C@@H]2O[C@](O)(C[C@@H](O)C[C@@H](O)[C@H](O)CC[C@@H](O)C[C@@H](O)CC(=O)O[C@H]1C)C[C@H](O)[C@H]2C(=O)O` [AmpB, amphotericin B, reference compound], the “SI, Selectivity Index (ratio between CC50 and IC50)” value [1] is reported as 9.9, the IC50 [2, 8] is reported as 0.1 ± 0.13 µM and the “toxicity in murine macrophages (in words)” value (from here on “toxicity”) [3] is reported as “highly cytotoxic”.

In the case of `COc1c(-c2ccc(O)c(O)c2)oc2cc(O)cc(O)c2c1=O` [Quercetin 3-O-methyl ether, quercetin 3-O-methyl ether], the “SI, Selectivity Index (ratio between CC50 and IC50)” value [1] is reported as 24.62, the “SI, Selectivity Index (ratio between CC50 and IC50)” value ([1]; listed as Quercetin 3-methyl ether) is reported as 24.6 and the “number of amastigotes per cell” value [4, 9] is reported as 5.6. The “Percentage of infected macrophages after treatment” value (shortened to “Percentage of infected macrophages”) [4, 9] was 72.4%, the “number of amastigotes per cell” value [4, 10] was 4.4 and the “Percentage of infected macrophages” value [4, 10] was 68.0%. For the same compound, the “number of amastigotes per cell” value [4, 11] was 1.7, the “Percentage of infected macrophages” value [4, 11] was 46.3% and the IC50 [2, 8] was 8.08 µM. The IC50 ([2]; stationary-phase promastigotes, 48 h at 24°C, MTT, listed as Quercetin 3-methyl ether, read-out: IC50 (inhibitory concentration of 50% of promastigotes of L. amazonensis)) was 8.1 ± 1.5 µM, the “reductions in infectivity of parasites after treatment” value [5] was roughly 47% and the “number of amastigotes per cell” value [5, 12] was 4.5. The “Percentage of infected macrophages” value [5, 12] was 67.8%, the “number of amastigotes per cell” value [5, 13] was 3.9 and the “Percentage of infected macrophages” value [5, 13] was 61.9%. The “number of amastigotes per cell” value [5, 14] was 2.4, the “Percentage of infected macrophages” value [5, 14] was 46.1% and the “hemolytic activity / damage to human erythrocytes (in words)” value [6] was “no significant damage”. The “RBC50 (50% of human red blood cell lysis)” value ([6]; human, 1 h) was 155.0 ± 33.2 µM and the “toxicity” value [3] was “no significant toxicity”.

For `COc1c(-c2ccc(O)c(O)c2-c2c(O)cc(O)c3c(=O)c(OC)c(-c4ccc(O)c(O)c4)oc23)oc2cc(O)cc(O)c2c1=O` [Strychnobiflavone, strychnobiflavone], the “toxicity” value ([1]; in vitro, after incubation with the products) was “no significant toxicity”, the “SI, Selectivity Index (ratio between CC50 and IC50)” value [1] was 39.6 and the “SI, Selectivity Index (ratio between CC50 and IC50)” value ([1]; listed as strychnobiflavone) was 39.55. The CC50 at 48 h [7] was 125 ± 4.5 µM, the “number of amastigotes per cell” value [4, 15] was 1.5 and the “Percentage of infected macrophages” value [4, 15] was 37.9%. The “number of amastigotes per cell” value [4, 16] was 1.3, the “Percentage of infected macrophages” value [4, 16] was 26.3% and the “number of amastigotes per cell” value [4, 17] was 0.4. The “Percentage of infected macrophages” value [4, 17] was 9.6%, the IC50 ([2]; Leishmania amazonensis, 48 h, read-out: IC50 (inhibitory concentration of 50% of promastigotes of L. amazonensis), stationary-phase promastigotes, 48 h at 24°C, MTT) was 3.16 µM and the IC50 ([2]; stationary-phase promastigotes, 48 h at 24°C, MTT, read-out: IC50 (inhibitory concentration of 50% of promastigotes of L. amazonensis)) was 3.2 ± 0.2 µM. The “reductions in infectivity of parasites after treatment” value [5] was roughly 72.6%, the “number of amastigotes per cell” value [5, 18] was 3.0 and the “Percentage of infected macrophages” value [5, 18] was 53.0%. For the same compound, the “number of amastigotes per cell” value [5, 19] was 2.2, the “Percentage of infected macrophages” value [5, 19] was 47.8% and the “number of amastigotes per cell” value [5, 20] was 1.2. The “Percentage of infected macrophages” value [5, 20] was 23.8%, the “RBC50 (50% of human red blood cell lysis)” value ([6]; 5% human O+ red blood cell suspension, 1 h at 37°C) was 209.6 ± 2.5 µM and the “hemolytic activity / damage to human erythrocytes (in words)” value ([6]; O+ human red blood cells) was “no significant damage”.
